Experimental data reported in US10287259B2, “Selenazolidine and thiazolidine compounds for treating cancer and other diseases” (The Penn State Research Foundation, priority 2016, dated 2019).

Experiments:
[1] = Maximum tolerated dose (MTD) / toxicology studies in mice
Panc-1 cells = experiment: Western blot analysis of Panc-1 lysates; type: cell-based
Experimental: Whole-cell lysates were made by subjecting AS-10 treated Panc-1 cells to RIPA lysis buffer (Thermo Scientific, USA) containing protease (Roche, USA) and phosphatase inhibitor cocktails (Sigma-Aldrich, USA) (Plano et al., 2016, J. Med. Chem. 1946-1959). Lysates were spun at 15,000 rpm for 10 minutes. Resulting supernatant was stored at −80° C. until use. NuPAGE gel 4-12% (Life Technologies, Carlsbad, Calif.) was used to resolve the lysates, followed by electro-transfer to PVDF membrane. After the transfer membrane was blocked with 5% non-fat milk and probed with different antibodies. Protein of interest were detected by using enhanced Chemiluminescent reagent (Life technologies, USA). Blots were stripped using Restore Western blot stripping buffer (Thermo Scientific, USA) to save time and samples.

Structure (SMILES): CC(=O)Oc1ccccc1C(=O)/N=C1\[Se]CCN1C(=O)c1ccccc1OC(C)=O [AS-10, 2-((3-(2-acetoxybenzoyl)-1,3-selenazolidin-2-ylidene)carbamoyl)phenyl acetate]
- safety margin, preliminary toxicology study in mice ([1]; mouse, in vivo): wide safety margin
- tolerability of AS-10 relative to Asp-SeCN (MTD) ([1]; nude mice): ~5 times
- MTD ([1]; nude, mouse, in vivo, ip): ~80 mg/kg
- cleaved caspase 8 (active) (Panc-1 cells): not detected
- cleavage of caspase 9 (Panc-1 cells; 10 μM): profound cleavage
- acetylation of histones H3 and H4 (Panc-1 cells; 10 μM, increasing time points): able to acetylate histones
- cell cycle arrest proteins p21 and p27 (Panc-1 cells; 10 μM, from 6 h for p21 and 12 h for p27): increase
- PARP cleavage (Panc-1 cells; Panc-1, 48 h, low dose AS-10 2.5 μM, gemcitabine 50 μM): no effect on PARP cleavage
- IκBα degradation (Panc-1 cells; cytosolic lysates, TNF-α stimulation, increasing dose): IκBα is not degraded
- active caspase 3 (cleaved caspase 3) and cleaved PARP (Panc-1 cells; increasing concentration, 24 h): increase
- expression of Bcl-xL and Mcl-1 (Panc-1 cells; time dependent): inhibited the expression
